What was measured:
Format in all cases: in vivo, human
[1] = system: patients with symptomatic oHCM; assay: SEQUOIA-HCM: analysis by baseline Valsalva LVOT-G severity (severe <100 mmHg vs very severe ≥100 mmHg); settings: for Change in KCCQ CSS, Mean (SD) Change from Baseline / LVOT-G - Rest, Mean (SD) Change from Baseline / LVOT-G - Valsalva, Mean (SD) Change from Baseline / Peak VO2, Mean (SD) Change from Baseline / Change in KCCQ CSS, Adjusted diff / LVOT-G - Rest, Adjusted diff / LVOT-G - Valsalva, Adjusted diff / NT-proBNP, Adjusted diff / Peak VO2, Adjusted diff / Proportional LVOT-G - Rest, Adjusted diff / Proportional LVOT-G - Valsalva, Adjusted diff / hs-cTpI, Adjusted diff: Baseline to Week 24; for Change in KCCQ CSS, Adjusted diff / LVOT-G - Rest, Adjusted diff / LVOT-G - Valsalva, Adjusted diff / NT-proBNP, Adjusted diff / Peak VO2, Adjusted diff / Proportional LVOT-G - Rest, Adjusted diff / Proportional LVOT-G - Valsalva, Adjusted diff / hs-cTpI, Adjusted diff / NYHA FC improvement, Rate difference / Proportion of patients with rest LVOT-G <30 mmHg & Valsalva LVOT-G <50 mmHg, Adjusted diff: vs placebo; for NYHA FC improvement, % of patients / Proportion of patients with rest LVOT-G <30 mmHg & Valsalva LVOT-G <50 mmHg / NYHA FC improvement, Rate difference / Proportion of patients with rest LVOT-G <30 mmHg & Valsalva LVOT-G <50 mmHg, Adjusted diff: Week 24; for proportional reduction from baseline in Valsalva (provoked) LVOT-G / proportional reduction from baseline in resting LVOT-G: week 24
Excerpt: Patients with Hypertrophic Obstructive Cardiomyopathy and Very Severe Left Ventricular Outflow Tract Obstruction. Patients enrolled in SEQUOIA-HCM (the study of Example 8), the pivotal phase 3 controlled trial of aficamten in adults with symptomatic oHCM, were grouped according to baseline Valsalva LVOT-G (severe obstruction [<100 mmHg] versus very severe obstruction [≥100 mmHg]). The prespecified primary endpoint was the proportional change from baseline to Week 24 in rest and Valsalva LVOT-G in severe versus very severe obstruction groups. Secondary endpoints included change in symptoms, cardiac biomarkers, and exercise capacity by group (Table 14). Of the 282 patients randomized, 209 patients had severe obstruction, and 73 had very severe obstruction. Compared to baseline, there was a profound reduction in resting and provoked obstruction in both groups. By week 24, the proportional reductions (95% CI) from baseline in the severely obstructed cohort were 69% (74 to 63) and 64% (69 to 56), and 73% (81 to 63) and 71% (79 to 61) in the very severe obstruction cohort, but there was no between-group difference (p>0.05). […] The post-titration doses by group were similar, with 81% and 88% in each cohort receiving the 15 mg and 20 mg dose strengths (p=0.21). There were no instances of per protocol down-titration in the very severe obstruction group, and treatment emergent adverse events (TEAE's) were balanced between groups (any TEAE 77 [71%] in severe versus 28 [85%] in very severe obstruction; p=0.60).

[2] = system: patients with symptomatic oHCM; assay: SEQUOIA-HCM secondary analysis: global remodelling response across five domains
Method: SEQUOIA-HCM recruited patients with symptomatic oHCM (New York Heart Association [NYHA]≥class 2, baseline pVO2 of ≤90% of predicted, respiratory exchange ratio [RER] of ≥1.05). Patients were randomized 1:1 to aficamten (5-20 mg daily) or placebo, and doses were adjusted during the first 6 weeks to achieve relief from obstruction (LVOT-G<30 mmHg) while maintaining left ventricular ejection fraction (LVEF) ≥50%, for 24 weeks. In this secondary analysis, remodelling response was assessed across five domains including: 1) left atrial volume index (LAVI) graded as normal (16-34 mL/m^2), mild (35-41 mL/m^2), moderate (42-48 mL/m^2), severe enlargement (>48 mL/m^2); 2) presence of left ventricular hypertrophy (LVH) with strain pattern on electrocardiogram (EKG) assessed by core lab, 3) Hyperdynamic (≥72) LVEF by core lab; 4)N-terminal brain natriuretic peptide (NT-proBNP) improvement of ≥50%, and; and 5) decrease of maximal wall thickness (MWT) ≥1.5 mm.

[3] = system: patients with symptomatic oHCM; assay: SEQUOIA-HCM cardiovascular magnetic resonance (CMR) substudy; settings: Echo Measurements; CMR Cohort N = 57 (Aficamten N = 25); Week 24
[4] = Baseline Valsalva LVOT-G <100 mmHg
[5] = Baseline Valsalva LVOT-G <100 mmHg, N = 109
[6] = Baseline Valsalva LVOT-G ≥100mmHg
[7] = Baseline Valsalva LVOT-G ≥100mmHg, N=33
[8] = severe obstruction (baseline Valsalva LVOT-G <100 mmHg)
[9] = very severe obstruction (≥100 mmHg)

## CCc1nc(-c2ccc3c(c2)CC[C@H]3NC(=O)c2cnn(C)c2)no1 [aficamten, (R)—N-(5-(5-ethyl-1,2,4-oxadiazol-3-yl)-2,3-dihydro-1H-inden-1-yl)-1-methyl-1H-pyrazole-4-carboxamide]
[1]; [4]
  Change in KCCQ CSS, Mean (SD) Change from Baseline: 12
  LVOT-G - Rest, Mean (SD) Change from Baseline: −28 ± 25 mmHg
  LVOT-G - Valsalva, Mean (SD) Change from Baseline: −38 ± 31 mmHg
  Peak VO2, Mean (SD) Change from Baseline: 0.108 ± 0.192 L/h/kg
  Change in KCCQ CSS, Adjusted diff: +8
  LVOT-G - Rest, Adjusted diff: −35 mmHg
  LVOT-G - Valsalva, Adjusted diff: −43 mmHg
  NT-proBNP, Adjusted diff: −79%
  Peak VO2, Adjusted diff: +1.6 mL/kg/min
  Proportional LVOT-G - Rest, Adjusted diff: −69%
  Proportional LVOT-G - Valsalva, Adjusted diff: −64%
  hs-cTpI, Adjusted diff: −45%
  NYHA FC improvement, Rate difference: +38.2%
  Proportion of patients with rest LVOT-G <30 mmHg & Valsalva LVOT-G <50 mmHg, Adjusted diff: +63.7%
[1]; [5]
  NYHA FC improvement, % of patients: (62%)
  Proportion of patients with rest LVOT-G <30 mmHg & Valsalva LVOT-G <50 mmHg: (73%)
[1]; [6]
  Change in KCCQ CSS, Mean (SD) Change from Baseline: 9
  LVOT-G - Rest, Mean (SD) Change from Baseline: −60 ± 29 mmHg
  LVOT-G - Valsalva, Mean (SD) Change from Baseline: −82 ± 38 mmHg
  Peak VO2, Mean (SD) Change from Baseline: 0.096 ± 0.168 L/h/kg
  Change in KCCQ CSS, Adjusted diff: +4
  LVOT-G - Rest, Adjusted diff: −52 mmHg
  LVOT-G - Valsalva, Adjusted diff: −68 mmHg
  NT-proBNP, Adjusted diff: −85%
  Peak VO2, Adjusted diff: +1.8 mL/kg/min
  Proportional LVOT-G - Rest, Adjusted diff: −73%
  Proportional LVOT-G - Valsalva, Adjusted diff: −71%
  hs-cTpI, Adjusted diff: −34%
  NYHA FC improvement, Rate difference: +22.4%
  Proportion of patients with rest LVOT-G <30 mmHg & Valsalva LVOT-G <50 mmHg, Adjusted diff: +51.2%
[1]; [7]
  NYHA FC improvement, % of patients: (49%)
  Proportion of patients with rest LVOT-G <30 mmHg & Valsalva LVOT-G <50 mmHg: (52%)
[1]; [8]
  proportional reduction from baseline in Valsalva (provoked) LVOT-G: 64%
  proportional reduction from baseline in resting LVOT-G: 69%
[1]; [9]
  proportional reduction from baseline in Valsalva (provoked) LVOT-G: 71%
  proportional reduction from baseline in resting LVOT-G: 73%
[2]; 142 aficamten treated patients
  patients with beneficial remodelling in at least one of five domains: 84%
[2]; aficamten
  patients with decrease by ≥50% in NT-proBNP: 81.7%
  patients with improvement in MWT (decrease ≥1.5 mm): 47.9%
  patients with resolution of hyperdynamic LVEF: 35.2%
  reduction in prevalence of LVH with strain pattern on EKG, patients: 19.0%
[2]; among patients with abnormal LAVI (>34 mL/m^2) at baseline, 44/94
  patients with improvement by one category in LAVI: 46.8%
[2]; vs placebo
  number needed to treat to achieve beneficial remodelling: 2.2
[3]
  LV Mass Index: 120 ± 32 g/m2
